# What was measured:
# bedstraw = assay: Test B pre/postemergence bedstraw; format: in vivo, Galium aparine
# Summary of the method: (§1)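 Herbicidal effect was estimated by eye on a ten-point control scale after plants spent twelve to sixteen days in a greenhouse following soil or foliar treatment. Foliar sprays targeted plants at one to four leaves; all doses were formulated in a non-phytotoxic solvent with surfactant.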
# blackgrass = assay: Test B pre/postemergence blackgrass; format: in vivo, Alopecurus myosuroides
# Summary of the method: as §1
# surinam grass = assay: Test B pre/postemergence surinam grass; format: in vivo, Brachiaria decumbens
# Summary of the method: as §1
# cocklebur = assay: Test B pre/postemergence cocklebur; format: in vivo, Xanthium strumarium
# Summary of the method: as §1
# giant foxtail = assay: Test B pre/postemergence giant foxtail; format: in vivo, Setaria faberii
# Summary of the method: as §1
# morningglory = assay: Test B pre/postemergence morningglory; format: in vivo, Ipomoea hederacea
# Summary of the method: as §1
# pigweed = assay: Test B pre/postemergence pigweed; format: in vivo, Amaranthus retroflexus
# Summary of the method: as §1
# rape = assay: Test B pre/postemergence rape; format: in vivo, Brassica napus
# Summary of the method: as §1
# soybean = assay: Test B pre/postemergence soybean; format: in vivo, Glycine max
# Summary of the method: as §1
# sugar beet = assay: Test B pre/postemergence sugar beet; format: in vivo, Beta vulgaris
# Summary of the method: as §1
# wheat = assay: Test B pre/postemergence wheat; format: in vivo, Triticum aestivum
# Summary of the method: as §1
# wild oat = assay: Test B pre/postemergence wild oat; format: in vivo, Avena fatua
# Summary of the method: as §1
# purple nutsedge = assay: Test B pre/postemergence purple nutsedge; format: in vivo, Cyperus rotundus; details: for Nutsedge plant response rating: Postemergence; for Plant response rating, Nutsedge: Preemergence
# Summary of the method: as §1
# smallflower flatsedge = assay: Test B flood test smallflower flatsedge; format: in vivo, Cyperus difformis
# Summary of the method: (§2)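 Read-out is a visual response score from 0 (no effect) to 10 (complete control), assigned by comparison with untreated controls. Treatment was applied at the 2-leaf stage, and plants stayed in the greenhouse for twelve to sixteen days before scoring.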
# duck salad = assay: Test B flood test duck salad; format: in vivo, Heteranthera limosa
# Summary of the method: as §2
# bamyardgrass = assay: Test B flood test barnyardgrass; format: in vivo, Echinochloa crus-galli
# Summary of the method: as §2
# [1] = Postemergence, Rate 62 g/ha, scale 0 to 10, 0 is no effect, 10 is complete control
# [2] = Postemergence, Rate 250 g/ha, scale 0 to 10, 0 no effect, 10 complete control
# [3] = Preemergence, Rate 125 g/ha, scale 0 to 10 (0 no effect, 10 complete control)
# [4] = Preemergence, Rate 250 g/ha, scale of 0 to 10 where 0 is no effect and 10 is complete control
# [5] = Preemergence, Rate 500 g/ha, scale 0 (no effect) to 10 (complete control)
# [6] = Rate 125 g/ha, Postemergence, scale 0 to 10, 0 no effect, 10 complete control
# [7] = Preemergence, Rate 62 g/ha, scale 0 to 10, 0 is no effect, 10 is complete control
# [8] = Rate 500 g/ha, Postemergence, scale 0 to 10, 0 no effect, 10 complete control
# [9] = Rate 125 g/ha, Pre-emergence, flood test species, scale 0 to 10 where 0 is no effect and 10 is complete control
# [10] = Rate 250 g/ha, headed Pre-emergence (flood test species), scale 0 to 10 (0 no effect, 10 complete control)
# [11] = Rate 500 g/ha, headed Pre-emergence (flood test species), scale 0 to 10 (0 no effect, 10 complete control)
# [12] = Rate 2000 g/ha, Pre-emergence (as headed), scale 0 to 10
# [13] = Rate 1000 g/ha, Pre-emergence (as headed), scale 0 to 10
smiles,measurement,setting,value
Cc1cccc(C)c1-n1c(=O)on(C(=O)N(c2ccc(Cl)cc2)C(C)C)c1=O [Compound 47],Bedstraw plant response rating,bedstraw; [1],0
same,Bedstraw plant response rating,bedstraw; [2],6
same,"Plant response rating, Bedstraw",bedstraw; [3],0
same,"Plant response rating, Bedstraw",bedstraw; [4],0
same,Bedstraw plant response rating,bedstraw; [5],0
same,Bedstraw plant response rating,bedstraw; [6],3
same,Blackgrass plant response rating,blackgrass; [1],0
same,Blackgrass plant response rating,blackgrass; [2],0
same,"Plant response rating, Blackgrass",blackgrass; [7],0
same,"Plant response rating, Blackgrass",blackgrass; [3],0
same,"Plant response rating, Blackgrass",blackgrass; [4],0
same,Blackgrass plant response rating,blackgrass; [5],0
same,Blackgrass plant response rating,blackgrass; [6],0
same,Blackgrass plant response rating,blackgrass; [8],0
same,B. signalgrass plant response rating,surinam grass; [1],0
same,B. signalgrass plant response rating,surinam grass; [2],0
same,"Plant response rating, B. signalgrass",surinam grass; [7],0
same,"Plant response rating, B. signalgrass",surinam grass; [3],0
same,"Plant response rating, B. signalgrass",surinam grass; [4],0
same,B. signalgrass plant response rating,surinam grass; [5],0
same,B. signalgrass plant response rating,surinam grass; [6],0
same,B. signalgrass plant response rating,"surinam grass; Rate 500 g/ha, Postemergence, scale of 0 to 10 where 0 is no effect and 10 is complete control",0
same,Cocklebur plant response rating,cocklebur; [1],0
same,Cocklebur plant response rating,cocklebur; [2],2
same,"Plant response rating, Cocklebur",cocklebur; [7],0
same,"Plant response rating, Cocklebur",cocklebur; [3],0
same,"Plant response rating, Cocklebur",cocklebur; [4],0
same,Cocklebur plant response rating,cocklebur; [5],0
same,Cocklebur plant response rating,cocklebur; [6],0
same,Cocklebur plant response rating,cocklebur; [8],2
same,Giant foxtail plant response rating,giant foxtail; [1],0
same,Giant foxtail plant response rating,giant foxtail; [2],0
same,"Plant response rating, Giant foxtail",giant foxtail; [7],0
same,"Plant response rating, Giant foxtail",giant foxtail; [3],2
same,"Plant response rating, Giant foxtail",giant foxtail; [4],3
same,Giant foxtail plant response rating,giant foxtail; [5],3
same,Giant foxtail plant response rating,giant foxtail; [6],0
same,Giant foxtail plant response rating,giant foxtail; [8],2
same,Morningglory plant response rating,morningglory; [1],1
same,Morningglory plant response rating,morningglory; [2],4
same,"Plant response rating, Morningglory",morningglory; [7],0
same,"Plant response rating, Morningglory",morningglory; [3],0
same,"Plant response rating, Morningglory",morningglory; [4],0
same,Morningglory plant response rating,morningglory; [5],0
same,Morningglory plant response rating,morningglory; [6],2
same,Morningglory plant response rating,morningglory; [8],6
same,Redroot pigweed plant response rating,pigweed; [1],0
same,Redroot pigweed plant response rating,pigweed; [2],0
same,"Plant response rating, Redroot pigweed",pigweed; [7],0
same,"Plant response rating, Redroot pigweed",pigweed; [3],0
same,"Plant response rating, Redroot pigweed",pigweed; [4],0
same,Redroot pigweed plant response rating,pigweed; [5],0
same,Redroot pigweed plant response rating,pigweed; [6],0
same,Redroot pigweed plant response rating,pigweed; [8],2
same,Rape plant response rating,rape; [1],0
same,Rape plant response rating,rape; [2],0
same,"Plant response rating, Rape",rape; [7],0
same,"Plant response rating, Rape",rape; [3],0
same,"Plant response rating, Rape",rape; [4],0
same,Rape plant response rating,rape; [5],0
same,Rape plant response rating,rape; [6],0
same,Rape plant response rating,rape; [8],0
same,Soybean plant response rating,soybean; [1],2
same,Soybean plant response rating,soybean; [2],2
same,"Plant response rating, Soybean",soybean; [7],0
same,"Plant response rating, Soybean",soybean; [3],0
same,"Plant response rating, Soybean",soybean; [4],0
same,Soybean plant response rating,soybean; [5],0
same,Soybean plant response rating,soybean; [6],2
same,Soybean plant response rating,soybean; [8],2
same,Sugarbeets plant response rating,sugar beet; [1],0
same,Sugarbeets plant response rating,sugar beet; [2],0
same,"Plant response rating, Sugarbeets",sugar beet; [7],0
same,"Plant response rating, Sugarbeets",sugar beet; [3],0
same,"Plant response rating, Sugarbeets",sugar beet; [4],0
same,Sugarbeets plant response rating,sugar beet; [5],0
same,Sugarbeets plant response rating,sugar beet; [6],0
same,Sugarbeets plant response rating,sugar beet; [8],0
same,Wheat plant response rating,wheat; [1],0
same,Wheat plant response rating,wheat; [2],2
same,"Plant response rating, Wheat",wheat; [7],0
same,"Plant response rating, Wheat",wheat; [3],0
same,"Plant response rating, Wheat",wheat; [4],0
same,Wheat plant response rating,wheat; [5],0
same,Wheat plant response rating,wheat; [6],0
same,Wheat plant response rating,wheat; [8],3
same,Wild oats plant response rating,wild oat; [1],0
same,Wild oats plant response rating,wild oat; [2],0
same,"Plant response rating, Wild oats",wild oat; [3],0
same,"Plant response rating, Wild oats",wild oat; [4],0
same,Wild oats plant response rating,wild oat; [5],0
same,Wild oats plant response rating,wild oat; [6],0
same,Wild oats plant response rating,wild oat; [8],3
same,Nutsedge plant response rating,"purple nutsedge; Rate 62 g/ha, scale 0 to 10, 0 is no effect, 10 is complete control",0
same,Nutsedge plant response rating,"purple nutsedge; Rate 250 g/ha, scale 0 to 10, 0 no effect, 10 complete control",0
same,"Plant response rating, Nutsedge","purple nutsedge; Rate 125 g/ha, scale 0 to 10 (0 no effect, 10 complete control)",0
same,"Plant response rating, Nutsedge","purple nutsedge; Rate 250 g/ha, scale of 0 to 10 where 0 is no effect and 10 is complete control",0
same,Nutsedge plant response rating,"purple nutsedge; Rate 125 g/ha, scale 0 to 10, 0 no effect, 10 complete control",0
same,Nutsedge plant response rating,"purple nutsedge; Rate 500 g/ha, scale 0 to 10, 0 no effect, 10 complete control",0
same,S. Flatsedge plant response rating,"smallflower flatsedge; Pre-emergence, Rate 1000 g/ha, scale 0 to 10 (0 no effect, 10 complete control)",2
same,S. Flatsedge plant response rating,smallflower flatsedge; [9],0
same,S. Flatsedge plant response rating,smallflower flatsedge; [10],2
same,"Plant response rating, S. Flatsedge",smallflower flatsedge; [11],2
same,S. Flatsedge plant response rating,smallflower flatsedge; [12],0
same,Ducksalad plant response rating,"duck salad; Rate 125 g/ha, Postemergence section (flood test species), scale 0 to 10, 0 no effect, 10 complete control",0
same,Ducksalad plant response rating,duck salad; [9],0
same,Ducksalad plant response rating,duck salad; [10],0
same,"Plant response rating, Ducksalad",duck salad; [11],0
same,Ducksalad plant response rating,duck salad; [13],3
same,Ducksalad plant response rating,duck salad; [12],0
same,Barnyardgrass plant response rating,bamyardgrass; [9],0
same,Barnyardgrass plant response rating,bamyardgrass; [10],0
same,"Plant response rating, Barnyardgrass",bamyardgrass; [11],1
same,Barnyardgrass plant response rating,bamyardgrass; [13],6
same,Barnyardgrass plant response rating,"bamyardgrass; Rate 2000 g/ha, Pre-emergence (as headed), scale 0 to 10, 0 no effect, 10 complete control",8

# Reference: patent publication US6737383B1, “Herbicidal oxadiazolidines” (priority 1999, dated 2004)
